Columns and labels:
Assay type in all cases: in vivo
[1] = tested on: Bird Cherry-Oat Aphid (Rhopalosiphum padi); assay: Bird cherry-oat aphid seed coating assay on wheat; conditions: 1.34 mg/seed, 10% SC formulation, 4 days after infestation
Description: Twenty spring wheat (Triticum aestivum var. Yuma) seeds were placed on a waxed paper. A pipette was used to apply a 10% SC formulation of the test compound to each seed. Two application of 6.7 μl each were applied to a seed, waiting until the seed was air-dried between applications. The total amount of active ingredient applied to each seed was 1.34 mg. All coated seeds are planted into 3 inch pots containing greenhouse metro mix, with 4 seeds used in each pot. An appropriate number of untreated seeds was also planted for control. The pots are placed on a California cart and moved into a greenhouse for initial and subsequent sub-watering. When the plants had germinated and grown to the 1-2 leaf unfurled stage, they were infested with bird cherry-oat aphid. The infested plants were held in an environmental chamber (23° C., 40% RH, 16 hr light: 8 hr dark) for 4 days before an assessment of aphid populations was conducted. Calculations for % Control are based on a corrected basis compared to the populations on the untreated controls.
Corrected % Control=100*(X−Y)/X • where X=No. of live aphids on untreated plants • Y=No. of live aphids on treated plants

[2] = tested on: Cotton Aphid (Aphis gossypii); assay: Cotton aphid seed coating assay on squash; conditions: for % Control, seed coating systemic: 1st leaf infested 13 days after planting
Description: Selected compounds of the invention were tested in assays designed to evaluate its systemic activity for control of cotton aphid through seed-coating prior to planting. The crop used in these assays was a hybrid squash (var. Pic-N-Pic). Test compound was formulated in a 10% SC formulation. Ten squash seeds were used for each treatment. Seeds were placed on waxed paper and a pipette was used to apply the original or diluted formulations to each seed. The air-dried, treated seeds were individually planted into 3 inch pots containing metro mix. The pots were placed on a California cart and moved into the greenhouse for sub watering only. At the specified number of days after planting, the plants were infested with approximately 40 wingless aphids. The infested plants were kept in an environmental holding room (23° C., 40% RH, 16 hr light: 8 hr dark) for three days before the number of live aphids was counted under a microscope. Calculations for % Control were based on a corrected basis compared to the populations on the reference plants germinated from seeds treated with the formulation blank.
Corrected % Control=100*(X−Y)/X • where X=No. of live aphids on reference plants • Y=No. of live aphids on treated plants Assay 1. Compounds (1) and (2) were tested at 3 mg/seed. The original 10% SC formulation was used. One half (15 ul) of the sample was spread onto one side of a seed. Once dried (approximately 1 hr), the seed was flipped over and the 2nd half of sample was spread over the other side. Fourteen and 25 days after planting, aphid infestations were conducted on the 1st and 2nd true leaves, respectively.
Assay 2. Compound (2) was tested at 0.1 and 1 mg/seed. For the 1 mg/seed treatment, the original 10% formulation was used. For the 0.1 mg/seed treatment, the 10% formulation were diluted 10× with DI water before application. One half (5 ul) of the sample was spread onto one side of a seed. Once dried (approximately 1 hr), the seed was flipped over and the 2nd half of sample was spread over the other side. Thirteen days after planting, the 1st leaf was infested.

[3] = tested on: Brown Planthopper (Nilaparvata lugens); assay: Brown planthopper root uptake assay on rice; conditions: 6-day observation
Description: (§1) These assays were designed to evaluate the possibility of using compounds of the invention for applications such as nursing trays, transplanting water and/or irrigation. Root-uptake systemic assays were performed on both brown planthopper and green leafhopper. Four-week-old rice seedlings were submerged in 3-cm depth of water in the bottom portion (high 5 cm, diameter 3 cm) of a 2-part glass cylinder (high 18 cm, diameter 3 cm). A metal screen was used to hold the seedlings within the bottom portion. Scotch tape was used to bind the two portions of the cylinder after setting up the seedlings. A metal cap was used to cover the cylinder. There were 4 cylinders for each treatment. The test compound was dissolved in acetone to make a 10,000 ppm stock solution which was incorporated at final test concentrations of 5, 2, 1, 0.5, 0.25 ppm in the water in which rice seedlings were submerged. Five laboratory-reared 3rd instar nymphs of brown planthopper or green leafhopper were introduced into each cylinder 3 hr after insecticide application. The treated test units were kept in a growth chamber with conditions set as followings: Temperature 28±0.5° C.; Relative humidity 70±0.5%; Photoperiod 14 hr light: […].

[4] = tested on: Green Leafhopper (Nephotettix sp.); assay: Green leafhopper root uptake assay on rice; conditions: 6-day observation
Description: as §1

[5] = tested on: Cat Flea (Ctenocephalides felis); assay: Cat flea filter wool assay; conditions: 48-hour exposure, mean
Description: Compound (2) was evaluated in a dose response series to establish the range of activity of the test compound. Technical material was dissolved in acetone and diluted with the same solvent to obtain the test concentrations. Bioassays were conducted by treating polyester aquarium filter wool with 1.0 ml of the test solution, thoroughly saturating the substrate and allowing it to dry for at least 1 hour. The dry filter wool was then placed into 10 cm plastic Petri dishes and covered with the lid. Each treatment was replicated 5 times. Approximately 15 unfed cat flea adults were placed into each replicate of each dosage being evaluated. Mortality was assessed at 2, 8, 24 and 48 hours after introduction of the fleas into the test system. The mean percent mortality for each dosage group and time interval was determined and results from the 48-hour observation are presented in Table 8.

[6] = tested on: Brown Dog Tick (Rhipicephalus sanguineus); assay: Brown dog tick glass plate assay; conditions: 48-hour exposure, mean
Description: Compound (2) was evaluated in a dose response series to establish the range of activity of the test compound. Technical material was dissolved in acetone and diluted with the same solvent to obtain the test concentrations. Tick bioassays were conducted by applying 1.0 ml of the test substance to clean dry glass plates confined by 10 cm grease pencil circles drawn on the plates and spread evenly with an acid brush. The plates were allowed to dry for at least 1 hour before adult ticks were confined to the treated substrate using 10 cm Petri dish lids. Each treatment was replicated 5 times. Approximately 5 adult ticks were placed into each replicate. Mortality was assessed at 2, 8, 24 and 48 hours after introduction of the ticks into the test system. The mean percent mortality for each dosage group and time interval was determined and results from the 48-hour observation are presented in Table 9.

[7] = 3 mg/seed, 10% SC formulation, counted 3 days after infestation

## CC(c1ccc(Cl)nc1)S(C)(=O)=NC#N (centres unmarked) [Compound 2, [1-(6-chloropyridin-3-yl)ethyl](methyl)oxido-λ^4-sulfanylidenecyanamide]
[1]
  % Control, seed coating systemic: 100%
[2]; 0.1 mg/seed
  % Control, seed coating systemic: 36.5%
[2]; 1 mg/seed
  % Control, seed coating systemic: 99.8%
[2]; [7]
  % Control, seed coating systemic 1st leaf, 14 days after planting: 100%
  % Control, seed coating systemic 2nd leaf, 25 days after planting: 99.8%
[3]; 0.25 ppm in water
  % Control, root uptake systemic Brown planthopper: 55%
[3]; 0.50 ppm in water
  % Control, root uptake systemic Brown planthopper: 80%
[3]; 1.00 ppm in water
  % Control, root uptake systemic Brown planthopper: 100%
[3]; 2.00 ppm in water
  % Control, root uptake systemic Brown planthopper: 100%
[3]; 5.00 ppm in water
  % Control, root uptake systemic Brown planthopper: 100%
[4]; 0.25 ppm in water
  % Control, root uptake systemic Green leafhopper: 45%
[4]; 0.50 ppm in water
  % Control, root uptake systemic Green leafhopper: 65%
[4]; 1.00 ppm in water
  % Control, root uptake systemic Green leafhopper: 100%
[4]; 2.00 ppm in water
  % Control, root uptake systemic Green leafhopper: 100%
[4]; 5.00 ppm in water
  % Control, root uptake systemic Green leafhopper: 100%
[5]; 5,000.0 ppm
  % Flea mortality: 100%
[5]; Ctenocephalides felis, 0.5 ppm
  mortality at 0.5 ppm: 52.4%
[5]; Ctenocephalides felis, 5.0 ppm
  mortality at 5 ppm: 74.4%
[5]; Ctenocephalides felis, 50.0 ppm
  mortality at 50 ppm: 76.6%
[5]; Ctenocephalides felis, 500.0 ppm
  mortality at 500 ppm: 83.8%
[6]; 5.0 ppm
  mortality at 5 ppm: 52%
[6]; 50.0 ppm
  mortality at 50 ppm: 56%
[6]; 500.0 ppm
  mortality at 500 ppm: 84%

From patent US20080108665A1, “Use of N-substituted sulfoximines for control of invertebrate pests” (priority 2006, published 2008)
